Assay results published in article PMC5131364, “Pharmacologic modulation of RORγt translates to efficacy in preclinical and translational models of psoriasis and inflammatory arthritis” (Scientific Reports, 2016).

Assays:
[1] = system: human γδ+ T cells in PBMCs; assay: Human γδ+ T cell in vitro activation; assay type: cell-based; settings: 168 h, IL-1β, IL-23 and IPP, 7 days, average, read-out: inhibition of the IL-17A+ γδ+ T cell population
Description: The following antibodies (anti-mouse or anti-human) were purchased from BD Biosciences (San Diego, CA) or eBioscience (San Diego, CA): anti-CD3-FITC (mouse 17A2 and human SK7), anti-CD4-allophycocyanin (APC), anti-CD4-PerCp, anti-CD4-FITC, anti-CD4-PE (mouse GK1.5 and human SK3), anti-CD44-PerCp (mouse IM7), anti-γδ TCR-FITC, anti-γδ TCR-PE (mouse GL3 and human B1), anti-CD62L-FITC (mouse MEL-14 and human SK11), anti-CD45RO-APC (human UCHL1), anti-CCR6-PE (human 11A9), anti-CD45-PerCp (mouse 30-F11). Human or mouse anti-IFNγ (mouse XMG1.2 and human 4S.B3), anti-TNFα (mouse MP6-XT22 and human MAB11), anti-IL-17A (mouse eBio17B7 and human eBio64DEC17), anti-IL-22 (mouse 1H8PWSR and human 22URTI), and anti-Foxp3 (mouse FJK-16s and human 36A/E7), all PE or APC conjugated, were purchased from eBioscience (San Diego, CA). Human and mouse APC conjugated CD1d tetramers pre-loaded with alpha-GalCer and negative controls were obtained from ProImmune. […] Cells were stained with fluorescence-labeled antibodies for surface marker, then fixed/permeabilized (eBioscience) and stained with antibodies for intracellular cytokines. […] The data were acquired on a FACS Calibur (BD Bioscience) and analyzed using FlowJo software (Tree Star, San Carlos, CA).
Human γδ^+ T cells were analyzed only through flow cytometry. […]

[2] = system: human iTreg cells co-cultured with responder CD4+ T cells; assay: Human inducible regulatory T cells suppressive function; assay type: cell-based; settings: iTreg generated in presence of 1 μM, CFSE
Experimental: 37 °C and 5% CO2 for 6 days. Cells were used for flow cytometry analysis of FOXP3+CD4+ T cells and RNA isolation to determine FOXP3 expression. The probe sets were purchased form Life technologies, FOXP3 […]
Human inducible regulatory T cells generation and suppressive function
To generate inducible regulatory T cells, naïve CD4 T cells was purified from PBMCs using naive CD4+ T cell isolation kit II, human (Miltenyi) and stimulated with anti‐CD3/anti‐CD28 antibodies plus IL‐2 and TGF‐β (10 ng/ml each, R&D system) in the presence or absence of 1µM JNJ‐54271074 . After 6‐7 days T cells were washed and Foxp3 expression was evaluated by FACS. […] After 4 days CFSE dilution was evaluated by FACS as an indication of responder T cell’s proliferation.
Supplementary Figure 1. […] Accumulated IL‐ 17A or IFNγ  was measured by ELISA.
Supplementary Figure 2. […] Total splenocytes were cultured with IL‐23 and IL‐2 in the presence of titrated JNJ‐54271074 for 4 days, and supernatants were measured for IL‐17A and IL‐22 by ELISA. IC50 was determined using Prism Graphpad.
Supplementary Figure 3. […] Cells were analyzed by flow cytometry for 17A+ and IL‐ 17A+/22+ population (A). […] Cells from DMSO or 1 µM JNJ‐54271074 treated wells were analyzed by flow cytometry for IFNγ+ and IL‐17A+ population (B) and IFNγ level in supernatants was […]

COc1nc2ccc([C@@](O)(c3ccc(C)nc3C)c3cnnn3C)cc2c(Cl)c1Cc1ccc(C(F)(F)F)cc1 [JNJ-54271074]
inhibition at 1 µM [1]: 56% | Treg suppressive activity on T cell proliferation [2]: not affected
